Consider 29 molecules from US20250388574A1, “HETEROCYCLIC COMPOUNDS AS TRIGGERING RECEPTOR EXPRESSED ON MYELOID CELLS 2 AGONISTS AND METHODS OF USE” (AMGEN INC., priority 2020, published 2025).

In this test the target is hTREM2 (Homo sapiens, UniProt Q9NZC2). Nature of the test: Phospho-Syk AlphaScreen/AlphaLISA assay in TREM2 and DAP12 overexpressing HEK293 cells (Example A1). The class given is cell-based. The arrangement: expressed in transfected cells. Conditions: HEK293 cells; for EC50: read-out: hTREM2 EC50. The protocol:
Pharmacological measurements of TREM2 signaling through DAP12 were made with TREM2 and DAP12 overexpressing HEK293 cells stable cell lines that had been single-cell cloned (“TREM2/DAP12-HEK”). The readout of the TREM2 signaling utilized Perkin Elmer AlphaScreen/AlphaLISA technology monitoring the phosphorylation levels of the Syk kinase. TREM2/DAP12-HEK cell lines were cultured in DMEM-F12 (Corning 10-092-CM) supplemented with 1× Penicillin/Streptomycin (Corning 30-002-CI), 1× GlutaMAX (Gibco 35050-061), and 10% Fetal Bovine Serum (Life Technologies 10099) referred to as “HEK Culture Medium”. Suspensions of TREM2/DAP12-HEK cells were prepared in HEK Culture Medium and dispensed into 384-well poly-D-lysine coated microplates (Corning 354661) at a density of 20,000 cells/well using a Multidrop Combi peristaltic microplate dispenser (Thermo), 25 uL volume of cell suspension/well. Plates containing cells were then incubated for 20 hours in a humidified cell culture incubator at 37° C. with 5% CO2 (Thermo). […] Assay Buffer contained diluted test articles (in 1% final DMSO concentration for compounds) or 100 nM anti-human/mouse TREM2 antibody (R&D Systems MAB17291) as a positive control, 100 nM or rat IgG2B isotype Ab as a negative control (R&D Systems MAB0061). Incubated the plates with test articles and controls for 45 minutes at room temperature and then aspirated/removed the medium from each well of the plates. Used a Multidrop Combi peristaltic liquid handler (Thermo) to dispense 15 uL/well of “Cell Lysis Immunoassay Buffer”. The Cell Lysis Immunoassay Buffer contained M-PER Mammalian Protein Extraction Reagent (Pierce/ThermoFisher 78505), 1× Halt Phosphatase Inhibitor Cocktail (ThermoFisher #78427), 0.1875 nM anti-phospho-Syk ([…]/526) ([…]) rabbit mAb (Cell Signaling Technologies catalog #2710), and 1.5 nM biotinylated Mouse anti-human Syk (4D10) antibody (BD Biosciences, catalog #624008). Incubated plates for 1 hour at room temperature after the addition of the Cell Lysis Immunoassay Buffer. Used the Multidrop Combi liquid handler to dispense 15 μL of AlphaScreen Acceptor Bead Solution containing 7.5 μg/mL anti-rabbit IgG (Fc specific) AlphaLISA Acceptor Beads (Perkin Elmer A[…]) in 1× Immunoassay buffer (Perkin Elmer A[…]) to each well of the microplates. Incubated plates for 2 hours at room temperature. Following the incubation with the AlphaLISA Acceptor Bead Solution, used a Multidrop Combi liquid handler (Thermo) to dispense 15 μL of AlphaScreen Donor Bead Solution containing 30 μg/mL of AlphaScreen Streptavidin Donor beads (Perkin Elmer 6760002B) in 1× Immunoassay buffer (Perkin Elmer A[…]) to each well of the microplates. Incubated microplates for 2 hours protected from light sources as the AlphaScreen reagents are light sensitive. Once the final incubation was completed, acquired AlphaScreen signal from the donor and acceptor beads using an Envision high throughput multi-modal microplate reader (Perkin Elmer) calibrated to the plate type with the AlphaScreen mirror and filter-set in 384-well mode, 680 nanometer excitation wavelength. The total measurement time per well was 550 milliseconds with a 180 millisecond excitation time. After reading the AlphaScreen signal for each well of the microplates, on a plate-by-plate basis, each raw test article well value (x) was normalized to a Percent of Control (“POC”) value using the following formula: […] Each plate contained 12 of each type of control wells that were used to generate the mean values. For concentration response curve analysis with test articles tested at various concentrations, the % of activation values were analyzed with 4 Parameter Logistic or Sigmoidal Dose-Response Models using GeneData Screener (GeneData, AG) or GraphPad Prism 7 (Graphpad Software, Inc.). […] This assay may be used to test any of the compounds described herein to assess and characterize a compound's ability to act as an agonist of TREM2.
For orientation: Alpha assays give light when donor and acceptor beads are brought close together.

hTREM2, sequence (Q9NZC2 19-230): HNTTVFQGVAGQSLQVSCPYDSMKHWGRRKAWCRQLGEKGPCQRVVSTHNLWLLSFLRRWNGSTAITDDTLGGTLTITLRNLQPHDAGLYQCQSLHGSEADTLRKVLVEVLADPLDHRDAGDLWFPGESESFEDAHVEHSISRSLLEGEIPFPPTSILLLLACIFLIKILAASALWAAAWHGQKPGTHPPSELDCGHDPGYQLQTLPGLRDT
hTREM2, sequence (O43914 22-113 partner): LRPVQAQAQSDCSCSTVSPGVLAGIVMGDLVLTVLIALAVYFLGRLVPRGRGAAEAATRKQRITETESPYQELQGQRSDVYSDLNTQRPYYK

Regarding `Cc1nc2cc(N3CCO[C@H](c4ccnc(OCC(F)(F)F)c4)C3)nc(-c3ccc(Cl)cc3F)c2c(=O)n1C` (single isomer, unassigned) [Example 95], the Emax entry is recorded as “++++ (Emax>300)” and the EC50 (commonly the concentration needed to bring the measured effect to its halfway point) fell in the range of 0.05 to 0.5 µM.
Take `Cc1nc2cc(N3CCO[C@@H](c4ccnc(OCC(F)(F)F)c4)C3)nc(-c3ccc(Cl)cc3F)c2c(=O)n1C` (single isomer, unassigned) [Example 96]: the Emax result was “++++ (Emax>300)” and the EC50 lay within 0.5 to 3 µM.
With `Cc1nc2cc(N3CCO[C@H](c4cccc(OC(F)(F)F)c4)C3)nc(-c3ccc(Cl)cc3F)c2c(=O)n1C` (single isomer, unassigned) [Example 97], the Emax entry was “++++ (Emax>300)” and the EC50 fell in the range of 0.5 to 3 µM.
Take `Cc1nc2cc(N3CCO[C@@H](c4cccc(OC(F)(F)F)c4)C3)nc(-c3ccc(Cl)cc3F)c2c(=O)n1C` (single isomer, unassigned) [Example 98]: the Emax result was “+++ (Emax>200 and ≤300)”; the EC50 lay within 3 to 100 µM.
Regarding `Cc1nc2cc(N3CCC[C@@H](c4cnn(C)c4)C3)nc(-c3ccc(Cl)cc3F)c2c(=O)n1C` (single isomer, unassigned) [Example 99], the Emax entry is given as “++++ (Emax>300)” and the EC50 is 0.05 to 0.5 µM.
For the molecule `Cc1nc2cc(N3CCC[C@H](c4cnn(C)c4)C3)nc(-c3ccc(Cl)cc3F)c2c(=O)n1C` (single isomer, unassigned) [Example 100], the Emax entry was “+++ (Emax>200 and ≤300)”; the EC50 lay in the range of 0.05 to 0.5 µM.
As to `Cc1nc2cc(N3CCC[C@@H](c4cn[nH]c4)C3)nc(-c3ccc(Cl)cc3F)c2c(=O)n1C` (single isomer, unassigned) [Example 107], the Emax entry is “++++ (Emax>300)” and the concentration for a half-maximal effect (EC50) is below 0.05 µM.
Taken in the same sequence, the figures for `Cc1nc2cc(N3CCC[C@H](c4cn[nH]c4)C3)nc(-c3ccc(Cl)cc3F)c2c(=O)n1C` (single isomer, unassigned) [Example 108] were “++++ (Emax>300)” and 0.05 to 0.5 µM.
For `Cc1noc([C@@H]2CCCN(c3cc4nc(C)n(C)c(=O)c4c(-c4ccc(Cl)cc4F)n3)C2)n1` (single isomer, unassigned) [Example 111], the Emax entry is reported as “++++ (Emax>300)” and the EC50 is 0.05 to 0.5 µM.
As for `Cc1noc([C@H]2CCCN(c3cc4nc(C)n(C)c(=O)c4c(-c4ccc(Cl)cc4F)n3)C2)n1` (single isomer, unassigned) [Example 112], the Emax result is “+++ (Emax>200 and ≤300)”; the half-maximal effective concentration (EC50) was 3 to 100 µM.
On to `Cc1nc2cc(N3CCC[C@@H](c4ccncc4)C3)nc(-c3ccc(Cl)cc3F)c2c(=O)n1C` (single isomer, unassigned) [Example 113], for which the Emax result was “++++ (Emax>300)” and the EC50 was in the range of 0.05 to 0.5 µM.
`Cc1nc2cc(N3CCC[C@H](c4ccncc4)C3)nc(-c3ccc(Cl)cc3F)c2c(=O)n1C` (single isomer, unassigned) [Example 114]: the Emax entry was “+++ (Emax>200 and ≤300)”; the EC50 lay within 0.05 to 0.5 µM.
In the case of `Cc1nc2cc(N3CCC(F)(F)[C@H](c4cnn(C)c4)C3)nc(-c3ccc(Cl)cc3F)c2c(=O)n1C` (single isomer, unassigned) [Example 117], the Emax entry was “+++ (Emax>200 and ≤300)”; the EC50 is below 0.05 µM.
For the molecule `Cc1nc2cc(N3CCC(F)(F)[C@@H](c4cnn(C)c4)C3)nc(-c3ccc(Cl)cc3F)c2c(=O)n1C` (single isomer, unassigned) [Example 118], the Emax entry was “+++ (Emax>200 and ≤300)”; the EC50 is 0.05 to 0.5 µM.
In the case of `Cc1ccc([C@H]2CN(c3cc4nc(C)n(C)c(=O)c4c(-c4ccc(Cl)cc4F)n3)CCO2)cn1` (single isomer, unassigned) [Example 139], the Emax entry is “++++ (Emax>300)” and the EC50 lay within 0.05 to 0.5 µM.
Regarding `Cc1ccc([C@@H]2CN(c3cc4nc(C)n(C)c(=O)c4c(-c4ccc(Cl)cc4F)n3)CCO2)cn1` (single isomer, unassigned) [Example 140], the Emax result is on record as “++++ (Emax>300)” and the EC50 lay within 0.05 to 0.5 µM.
As to `Cc1nc2cc([C@H]3CCO[C@@H](c4cnn(C)c4)C3)nc(-c3ccc(Cl)cc3F)c2c(=O)n1C` (single isomer, unassigned) [Example 162], the Emax entry was “+++ (Emax>200 and ≤300)”; the concentration giving a half-maximal response (EC50) is below 0.05 µM.
As for `Cc1nc2cc([C@@H]3CCO[C@H](c4cnn(C)c4)C3)nc(-c3ccc(Cl)cc3F)c2c(=O)n1C` (single isomer, unassigned) [Example 163], the Emax entry was “+++ (Emax>200 and ≤300)”; the 50% effective concentration (EC50) lay within 3 to 100 µM.
As for `Cc1nc2cc([C@H]3CCO[C@@H](c4cnn(C5CC5)c4)C3)nc(-c3ccc(Cl)cc3F)c2c(=O)n1C` (single isomer, unassigned) [Example 165], the Emax result was “+++ (Emax>200 and ≤300)”; the EC50 was below 0.05 µM.
For `Cc1nc2cc([C@@H]3CCO[C@H](c4cnn(C5CC5)c4)C3)nc(-c3ccc(Cl)cc3F)c2c(=O)n1C` (single isomer, unassigned) [Example 166], the Emax entry was “+++ (Emax>200 and ≤300)”; the concentration for a half-maximal effect (EC50) lay in the range of 0.5 to 3 µM.
For the molecule `Cc1cc([C@H]2C[C@@H](c3cc4nc(C)n(C)c(=O)c4c(-c4ccc(Cl)cc4F)n3)CCO2)ccn1` (single isomer, unassigned) [Example 169], the Emax result is “+++ (Emax>200 and ≤300)”; the 50% effective concentration (EC50) was below 0.05 µM.
On to `Cc1cc([C@@H]2C[C@H](c3cc4nc(C)n(C)c(=O)c4c(-c4ccc(Cl)cc4F)n3)CCO2)ccn1` (single isomer, unassigned) [Example 170], for which the Emax entry is “+++ (Emax>200 and ≤300)”; the EC50 fell in the range of 0.5 to 3 µM.
For the molecule `COc1cc([C@H]2C[C@@H](c3cc4nc(C)n(C)c(=O)c4c(-c4ccc(Cl)cc4F)n3)CCO2)ccn1` (single isomer, unassigned) [Example 172], the Emax entry was “++++ (Emax>300)” and the EC50 was below 0.05 µM.
In the case of `COc1cc([C@@H]2C[C@H](c3cc4nc(C)n(C)c(=O)c4c(-c4ccc(Cl)cc4F)n3)CCO2)ccn1` (single isomer, unassigned) [Example 173], the Emax entry is “+++ (Emax>200 and ≤300)”; the EC50 was 0.5 to 3 µM.
On to `COc1cc([C@H]2C[C@H](c3cc4nc(C)n(C)c(=O)c4c(-c4ccc(Cl)cc4F)n3)CCO2)ccn1` (single isomer, unassigned) [Example 174], for which the Emax entry is recorded as “++++ (Emax>300)” and the EC50 lay within 0.05 to 0.5 µM.
With `COc1cc([C@@H]2C[C@@H](c3cc4nc(C)n(C)c(=O)c4c(-c4ccc(Cl)cc4F)n3)CCO2)ccn1` (single isomer, unassigned) [Example 175], the Emax entry is “+++ (Emax>200 and ≤300)”; the EC50 is 0.05 to 0.5 µM.
As to `Cc1nc2cc([C@H]3CCO[C@@H](c4cccnc4)C3)nc(-c3ccc(Cl)cc3F)c2c(=O)n1C` (single isomer, unassigned) [Example 177], the Emax entry is given as “++++ (Emax>300)” and the EC50 is 0.05 to 0.5 µM.
`Cc1nc2cc([C@@H]3CCO[C@H](c4cccnc4)C3)nc(-c3ccc(Cl)cc3F)c2c(=O)n1C` (single isomer, unassigned) [Example 178]: the Emax entry is given as “++++ (Emax>300)” and the concentration giving a half-maximal response (EC50) lay within 0.5 to 3 µM.
`Cc1nc2cc(N3CCO[C@@H](c4cnn(C)c4)C3)nc(-c3ccc(Cl)cc3F)c2c(=O)n1C` [Example 1, 5-(4-chloro-2-fluorophenyl)-2,3-dimethyl-7-((2S)-2-(1-methyl-1H-pyrazol-4-yl)-4-morpholinyl)pyrido[4,3-d]pyrimidin-4(3H)-one]: the Emax result was “+++ (Emax>200 and ≤300)”; the EC50 is 0.05 to 0.5 µM.
